# Source: US7402575B2, “Methods of treating inflammation” (priority 2003, dated 2008)
# “Also recorded” adds a separate entry of the source.
# Key:
# [1] = Plasma concentrations of TAC in the previous in vivo experiments; parameters: species or system dog; details: in vivo experiments of Example 2; printed as low 10^−5M range
# Description: The dose of TAC used in the Pretreatment Study was based on calculations previously obtained from the ventricular trabecular experiments in which it was estimated that a plasma concentration of at least 10^−5M would be required to inhibit lysozyme's depressant activity in vivo (49). Based on the molecular weight of TAC (628 MW), the average size of the dog (20 kg), and the estimated distribution space of approximately 50% of total body weight, the dose chosen was 100 mg (Sigma Corp, Canada, Oakville, Ontario) mixed in 200 ml 5% dextrose in water (D5W) that was given intravenously over 0.5 hr. After this initial dose, a dose of 50 mg mixed in 50 ml D5W was continuously infused over each hour for the remainder of the study. The placebo group received an identical amount of D5W over the course of the study.
# In the present study, the inventors examined whether the administration of chitobiose after 3.5 hrs of E. coli sepsis at a relatively high dose could reverse the myocardial depression that develops in this model.
# E. coli sepsis in dogs = test: Pretreatment Study: TAC given before E. coli sepsis, hemodynamics; assay type: in vivo, dog; details: for Arterial pH / HR / Hct / Pwp / SVR: mean±SE, n=6
# Description: In all of the studies outlined, the animals were randomized into treatment and nontreatment placebo groups (see below). The E. coli model used in these studies was identical to that previously described (6). Sepsis was induced by the intravenous infusion of 10^10 colony forming units of live E. coli (designation 011:B4). The bacteria were suspended in normal saline solution and were given over 0.5 hour. A constant infusion of approximately 5×10^9 colony forming units/hour of E. coli was then maintained for the remainder of the experiment.
# The animals (16-24 kg) were initially anesthetized with thiopental sodium (20 mg/kg, intravenously) and constantly infused with sufentanil citrate (1 ug/min) and midazolam (5 ug/kg/min) (33). Drug rates were adjusted as required to abolish the palpebral reflex. The animals were placed in the supine position; the trachea was intubated with an endotracheal tube; and the lungs were mechanically ventilated at a tidal volume of 20 ml/kg. The ventilator rate was initially set to maintain blood pH at approximately 7.35 and was increased as necessary to reverse the metabolic acidosis that developed over the course of the study. Approximately 100% oxygen was inspired, so that hypoxemia would not affect the results of the study.
# Under sterile conditions, the right jugular vein was percutaneously cannulated with an introducer (Arrow International, Reading, Pa.). A thermister tipped catheter was advanced from the jugular vein into the pulmonary artery to measure mean pulmonary arterial pressure (Ppa), mean pulmonary capillary wedge pressure (Pwp), mean right atrial pressure (Pra), thermodilution cardiac output (CO, Columbus Instruments, OH), and to obtain mixed venous oxygen blood samples. Another introducer was placed into the left jugular vein for administration of intravenous saline solution and the treatment or placebo drug (see below). A polyethylene catheter was also percutaneously placed into the femoral artery to measure mean blood pressure (MAP), and to obtain samples of blood for blood gas analysis, blood hematocrit (Hct), lactate concentrations, and blood cultures in some cases. Lactate was measured by an automated lactate dehydrogenase based assay (34) and was performed only in ETS and LTS because of equipment difficulties in the Pretreatment Study.
# All catheters were connected to transducers (Cobe Laboratories), were referenced relative to the left atrium and were connected to a chart recorder (Astro-Med, W Warwick, R.I.). Heart rate (HR) was measured from the recorder tracing. Stroke-volume (SV) was calculated as CO/HR. Systemic vascular resistance (SVR) was calculated from [(MAP-Pra)/CO]×80. At each measurement interval (see below), a full set of measurements included MAP, CO, Ppa, Pra, Pwp, Hct, HR, SV, and arterial and mixed venous blood samples.
# In the analysis, stroke work (SW) was the primary index of cardiac performance and the primary hemodynamic endpoint chosen in the in vivo studies (35,18) (see Discussion). At constant preload, SW reflects both the decreases in afterload and the changes in contractile function that accompany sepsis. SW was determined at approximately the same Pwp at each measurement interval. The baseline Pwp usually averaged ≈8-10 mmHg, and normal saline solution was given as necessary to maintain Pwp constant over the experimental period. SW was calculated from SV (MAP-Pwp).
# Pretreatment Study. In the Pretreatment Study, TAC was given before the bacteria were infused. Based on previous studies, it takes approximately 3 to 4 hours of constant bacteremia in order for myocardial depression to develop in this model (6,18). A three to five hour course of bacteremia was therefore considered necessary to determine if TAC could block the decline in SW observed at this interval. […]
# [2] = system: right ventricular trabecular preparation; test: Adrenergic response to field stimulation or isoproterenol in right ventricular trabecular preparation; assay type: cell-based, dog; details: TAC 10^−4M
# Source text: Since myocardial depression in sepsis may also be related to a diminished sympathetic response, the possible role of Lzm-S in contributing to this effect was additionally investigated in the right ventricular preparation as previously described (18). Neural adrenergic stimulation was produced in which the pulse width of the electrical stimulus-trains was increased from 2 ms to 20 ms, keeping other stimulus parameters unchanged. The increase in tension seen with sympathetic nerve stimulation was calculated as a percent increase from basal twitch amplitude. In the protocol used, the adrenergic response was measured before and after 10^−10M, 10^−9M, and 10^−8M Lzm-S were added to the organ bath. The results obtained with Lzm-S were compared with those obtained in time control experiments in which equal volumes of KH were added to the preparation at identical intervals. In a second set of experiments, it was observed whether TAC prevented the decrease in the adrenergic response produced by Lzm-S. Either TAC (10^−4M) or KH was added to an organ bath, and the results obtained with TAC treatment were compared with those obtained without the addition of the inhibitor. […]
# [3] = immediately after TAC infusion, before sepsis
structure (smiles),measurement,setting,value
"CC(=O)N[C@H]1[C@H](O[C@H]2[C@H](O)[C@@H](NC(C)=O)C(O)O[C@@H]2CO)O[C@H](CO)[C@@H](O[C@@H]2O[C@H](CO)[C@@H](O)[C@H](O)[C@H]2NC(C)=O)[C@@H]1O (stereo partly drawn) [TAC, N,N′,N″ triacetylglucosamine]",Plasma concentrations of TAC,[1],~10^−5 M
same,"CO after pretreatment, before sepsis",E. coli sepsis in dogs,no significant effect on CO
same,CO at the 3 h period vs baseline,E. coli sepsis in dogs,CO increased further at the 3 h period
same,"MAP after treatment, before sepsis",E. coli sepsis in dogs,no effect on baseline MAP
same,MAP at the 5 hour period vs nontreated group,E. coli sepsis in dogs,significantly prevented the decrease in MAP; also recorded: significant increases
same,"SV, change between baseline and 5 h vs nontreated group",E. coli sepsis in dogs,significantly different between the treated and nontreated groups; also recorded: significant increases
same,"SW, change between baseline and 5 h vs nontreated group",E. coli sepsis in dogs,significantly different between the treated and nontreated groups; also recorded: significant increases
same,Arterial pH,E. coli sepsis in dogs; 3 h postsepsis,7.25 ± .001
same,HR,E. coli sepsis in dogs; 3 h postsepsis,105 ± 5 beats/min
same,Hct,E. coli sepsis in dogs; 3 h postsepsis,28 ± 2%
same,Pwp,E. coli sepsis in dogs; 3 h postsepsis,9 ± .9 mmHg
same,SVR,E. coli sepsis in dogs; 3 h postsepsis,1272 ± 221 dynes s cm^−5
same,Arterial pH,E. coli sepsis in dogs; 5 h postsepsis,7.22 ± 0.1
same,HR,E. coli sepsis in dogs; 5 h postsepsis,90 ± 5 beats/min
same,Hct,E. coli sepsis in dogs; 5 h postsepsis,26 ± 3%
same,Pwp,E. coli sepsis in dogs; 5 h postsepsis,9.6 ± .9 mmHg
same,SVR,E. coli sepsis in dogs; 5 h postsepsis,1504 ± 249 dynes s cm^−5
same,Arterial pH,E. coli sepsis in dogs; baseline before TAC,7.35 ± .01
same,HR,E. coli sepsis in dogs; baseline before TAC,74 ± 11 beats/min
same,Hct,E. coli sepsis in dogs; baseline before TAC,33 ± 1%
same,Pwp,E. coli sepsis in dogs; baseline before TAC,9.3 ± .8 mmHg
same,SVR,E. coli sepsis in dogs; baseline before TAC,2472 ± 320 dynes s cm^−5
same,Arterial pH,E. coli sepsis in dogs; [3],7.28 ± .01
same,HR,E. coli sepsis in dogs; [3],78 ± 5 beats/min
same,Pwp,E. coli sepsis in dogs; [3],10.4 ± 1 mmHg
same,SVR,E. coli sepsis in dogs; [3],1872 ± 320 dynes s cm^−5
same,Effect of pretreatment on the reduction in adrenergic response caused by Lzm-S,[2],prevented the reduction in adrenergic response
